Assays:
[1] = molecular target: T1, Full-length inactive AKT1 (Homo sapiens (Human), UniProt P31749); test: Thermal Shift Assay (protein-ligand binding); settings: Kd at 25° C. calculated using constant ligand binding enthalpy −15 kcal/mol; 15 μM compound, ANS dye
Procedure: Binding analysis. Protein-ligand binding was identified with the thermal shift assay which is based on the ligand-induced stabilization of the protein tertiary structure. The thermal stability of the ligand-Akt1 complex was assessed by subjecting the complex to a set temperature gradient and by comparison of the meltion temperature of the Akt1-ligand complex with the melting temperature of the protein alone. Protein unfolding was monitored by the fluorescence readout of an environmentally sensitive fluorescent dye, 1-anilinonaphthalene-8-sulfonic acid (ANS). […] The PCR plate was placed into a RT-PCR instrument and a temperature gradient was performed, increasing from 27 to 80° C., at 1° C./30 sec heat rate with a dwell time of 20 sec. The change in ANS fluorescence was measured using the filter set of 475 nm/525 nm excitation/emission.

[2] = molecular target: T1, Full-length inactive AKT1; test: Inactive Akt Alpha Screen Assay; settings: 8 nM inactive Akt1 activated by PDK1 and MAPKAPK2, lipid vesicles, 50 μM ATP, biotinylated crosstide; read-out: Akt1 biochemical assay IC50 AlphaScreen crosstide
Procedure: AKT1 activity was assayed using the GSK3-derived biotinylated peptide substrate, crosstide (biotin-[…]), and AlphaScreen™ (Amplified Luminescent Proximity Homogeneous Assay) technology. AKT1 activation was achieved by the addition of the activating kinases PDK1 and MAPKAPK2, lipid vesicles, and ATP. The extent of peptide phosphorylation was determined using a phospho-AKT substrate antibody and acceptor beads conjugated to Protein A and donor beads conjugated to streptavidin that bind to the biotin on the peptide. Excitation of the donor beads converted ambient oxygen to excited singlet oxygen which, when in close proximity to acceptor beads, reacted with acceptor beads resulting in signal amplification.
After a 20 minute pre-incubation at room temperature, the kinase reaction was initiated by the addition of 5 μL of an activation mixture diluted in assay buffer containing biotinylated crosstide, PDK1, MAPKAPK2, DOPS/DOPC, PtdIns(3,4,5)P3, and ATP for final concentrations of 60 nM biotinylated crosstide, 0.1 nM PDK1, 0.7 nM MK2, 5.5 μM DOPS, 5.5 μM DOPC, 0.5 μM PtdIns(3,4,5)P3, and 50 μM ATP. The plates were incubated for 30 minutes at room temperature, and then stopped in the dark by the addition of 10 μL stop/detection mixture prepared in assay buffer containing EDTA, AlphaScreen™ Streptavidin Donor and Protein A Acceptor beads, and phospho-AKT substrate antibody for final concentrations of 10 mM EDTA, 500 ng/well of both AlphaScreen™ Streptavidin Donor beads and Protein A Acceptor beads, and phospho-AKT substrate antibody at a final dilution of 1:350. Assay plates were incubated for 90 minutes at room temperature in the dark, and the plates were read on a Perkin Elmer Envision Multilabel plate reader (excitation wavelength: 640 nm, emission wavelength: 570 nm). […]

[3] = system: Phospho-Akt (S473); test: Cell ELISA Assay, Phospho-Akt detection; format: cell-based; settings: cells treated for 1 hour, cell line not stated
Procedure: Phospho-Akt detection analysis. Phospho-Akt (S473) was detected using cell ELISA. Briefly, cells were plated in a 96-well plate at 7,000-10,000 cells per well, cultured for 2-3 days in complete growth medium, and then treated with various drugs or combinations of drugs for 1 hour. The cells were fixed with ice-cold methanol, and washed with TBS supplemented with 1% H2O2. Phospho-Akt (S473) was probed with corresponding rabbit antibody as a primary antibody, and horseradish peroxidase conjugated goat anti-rabbit IgG. After treatment with SuperSignal® ELISA for 15 minutes, the detection was performed using a luminometer. Data were normalized to untreated controls and analyzed with Microsoft Excel.

[4] = system: cells; test: Cell proliferation / viability GI50 (MTS assay or ATP quantitation assay); format: cell-based; settings: 72 hours treatment; cell line and assay (MTS or ATP quantitation) not stated
Procedure: Cell proliferation analysis. Cell survival was determined by the MTS assay. Briefly, cells were plated in a 96-well plate at 2,000-10,000 cells per well, cultured for 24 hours in complete growth medium, and then treated with various drugs and drug combinations for 72 hours. MTS was added and incubated for 4 hour, followed by assessment of cell viability using the microplate reader at 570 nm. Data were normalized to untreated controls and analyzed with Microsoft Excel.
Cell viability analysis. Cell viability was determined by the ATP quantitation assay. Briefly, cells were plated in a 96-well plate at 2,000-10,000 cells per well, cultured for 24 hours in complete growth medium, and then treated with various drugs or combination of drugs for 72 hours. CellTiter-Glo® reagent was added and incubated at room temperature for 10 minutes, followed by assessment of cell viability using a luminometer. Data were normalized to untreated controls and analyzed with Microsoft Excel.

T1 sequence (P31749 whole entry): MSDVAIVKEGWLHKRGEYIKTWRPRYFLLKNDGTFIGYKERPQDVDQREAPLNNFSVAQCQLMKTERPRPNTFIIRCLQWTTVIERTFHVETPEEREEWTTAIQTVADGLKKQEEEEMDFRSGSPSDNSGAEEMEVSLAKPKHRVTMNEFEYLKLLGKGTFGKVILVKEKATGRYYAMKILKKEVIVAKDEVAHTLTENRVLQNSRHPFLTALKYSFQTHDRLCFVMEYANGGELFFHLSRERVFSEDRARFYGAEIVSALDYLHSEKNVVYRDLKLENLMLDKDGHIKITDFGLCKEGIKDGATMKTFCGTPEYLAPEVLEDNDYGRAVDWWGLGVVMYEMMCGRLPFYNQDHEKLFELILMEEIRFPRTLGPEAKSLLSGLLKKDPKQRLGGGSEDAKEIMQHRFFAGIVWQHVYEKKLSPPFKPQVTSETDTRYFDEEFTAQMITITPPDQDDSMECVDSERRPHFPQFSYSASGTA

Structure (SMILES)	Kd [1]	IC50 [2]	IC50 [3]	GI50 [4]
CC(C)(O)C(=O)Nc1cccc(-c2ccc3nc(-c4cccnc4N)n(-c4ccc(C5(N)CCC5)cc4)c3n2)c1 [Cmpd 6, N-(3-(3-(4-(1-aminocyclobutyl)phenyl)-2-(2-aminopyridin-3-yl)-3H-imidazo[4,5-b]pyridin-5-yl)phenyl)-2-hydroxy-2-methylpropanamide]	0.0014 µM	0.00163 µM		
Nc1ncccc1-c1nc2ccc(-c3cccc(N4CCS(=O)(=O)CC4)c3)nc2n1-c1ccc(C2(N)CCC2)cc1 [Cmpd 18, 4-(3-(3-(4-(1-aminocyclobutyl)phenyl)-2-(2-aminopyridin-3-yl)-3H-imidazo[4,5-b]pyridin-5-yl)phenyl)thiomorpholine 1,1-dioxide]	0.0008 µM	0.00179 µM		
CN(C)C(=O)C1CCN(c2cccc(-c3ccc4nc(-c5cccnc5N)n(-c5ccc(C6(N)CCC6)cc5)c4n3)c2)CC1 [Cmpd 9, 1-(3-(3-(4-(1-aminocyclobutyl)phenyl)-2-(2-aminopyridin-3-yl)-3H-imidazo[4,5-b]pyridin-5-yl)phenyl)-N,N-dimethylpiperidine-4-carboxamide]	0.0002 µM	0.00251 µM	0.0021 µM	
Nc1ncccc1-c1nc2ccc(Sc3ccccc3)nc2n1-c1ccc(C2(N)CCC2)cc1 [Cmpd 21, 3-(3-(4-(1-aminocyclobutyl)phenyl)-5-(phenylthio)-3H-imidazo[4,5-b]pyridin-2-yl)pyridin-2-amine]	0.11 µM		0.605 µM	
CC(C)C(=O)N1CCN(c2cccc(-c3ccc4nc(-c5cccnc5N)n(-c5ccc(C6(N)CCC6)cc5)c4n3)c2)CC1 [Cmpd 15, 1-(4-(3-(3-(4-(1-aminocyclobutyl)phenyl)-2-(2-aminopyridin-3-yl)-3H-imidazo[4,5-b]pyridin-5-yl)phenyl)piperazin-1-yl)-2-methylpropan-1-one]	0.0011 µM		0.004 µM	
Nc1ncccc1-c1nc2ccc(-c3cccc(N4CCN(C(=O)C5CC5)CC4)c3)nc2n1-c1ccc(C2(N)CCC2)cc1 [Cmpd 14, (4-(3-(3-(4-(1-aminocyclobutyl)phenyl)-2-(2-aminopyridin-3-yl)-3H-imidazo[4,5-b]pyridin-5-yl)phenyl)piperazin-1-yl)(cyclopropyl)methanone]	0.0011 µM	0.00184 µM	0.011 µM	296 µM
CCC(=O)N1CCN(c2cccc(-c3ccc4nc(-c5cccnc5N)n(-c5ccc(C6(N)CCC6)cc5)c4n3)c2)CC1 [Cmpd 13, 1-(4-(3-(3-(4-(1-aminocyclobutyl)phenyl)-2-(2-aminopyridin-3-yl)-3H-imidazo[4,5-b]pyridin-5-yl)phenyl)piperazin-1-yl)propan-1-one]	0.0014 µM	0.00215 µM	0.009 µM	335 µM
CC(C)(C)C(=O)Nc1cccc(-c2ccc3nc(-c4cccnc4N)n(-c4ccc(C5(N)CCC5)cc4)c3n2)c1 [Cmpd 4, N-(3-(3-(4-(1-aminocyclobutyl)phenyl)-2-(2-aminopyridin-3-yl)-3H-imidazo[4,5-b]pyridin-5-yl)phenyl)pivalamide]	0.0004 µM	0.0017 µM	0.017 µM	265 µM
Nc1ncccc1-c1nc2ccc(Nc3ccc(N4CCOCC4)cc3)nc2n1-c1ccc(C2(N)CCC2)cc1 [Cmpd 20, 3-(4-(1-aminocyclobutyl)phenyl)-2-(2-aminopyridin-3-yl)-N-(4-morpholinophenyl)-3H-imidazo[4,5-b]pyridin-5-amine]	0.0573 µM	0.00872 µM	0.414 µM	
Nc1ncccc1-c1nc2ccc(Oc3ccccc3)nc2n1-c1ccc(C2(N)CCC2)cc1 [Cmpd 22, 3-(3-(4-(1-aminocyclobutyl)phenyl)-5-phenoxy-3H-imidazo[4,5-b]pyridin-2-yl)pyridin-2-amine]	0.0831 µM			
Nc1ncccc1-c1nc2ccc(-c3cccc(N4CCC(C(=O)N5CCOCC5)CC4)c3)nc2n1-c1ccc(C2(N)CCC2)cc1 [Cmpd 11, (1-(3-(3-(4-(1-aminocyclobutyl)phenyl)-2-(2-aminopyridin-3-yl)-3H-imidazo[4,5-b]pyridin-5-yl)phenyl)piperidin-4-yl)(morpholino)methanone]	0.0002 µM	0.00336 µM	0.0017 µM	
CCN(CC)C(=O)C1CCN(c2cccc(-c3ccc4nc(-c5cccnc5N)n(-c5ccc(C6(N)CCC6)cc5)c4n3)c2)CC1 [Cmpd 10, 1-(3-(3-(4-(1-aminocyclobutyl)phenyl)-2-(2-aminopyridin-3-yl)-3H-imidazo[4,5-b]pyridin-5-yl)phenyl)-N,N-diethylpiperidine-4-carboxamide]	0.0002 µM	0.00415 µM	0.003 µM	
C[C@@H]1CN(c2cccc(-c3ccc4nc(-c5cccnc5N)n(-c5ccc(C6(N)CCC6)cc5)c4n3)c2)C[C@H](C)O1 [Cmpd 17, 3-(3-(4-(1-aminocyclobutyl)phenyl)-5-(3-((2S,6R)-2,6-dimethylmorpholino)phenyl)-3H-imidazo[4,5-b]pyridin-2-yl)pyridin-2-amine]	0.0031 µM	0.00436 µM		
C[C@@H](O)CNC(=O)c1cccc(-c2ccc3nc(-c4cccnc4N)n(-c4ccc(C5(N)CCC5)cc4)c3n2)c1 [Cmpd 8, (R)-3-(3-(4-(1-aminocyclobutyl)phenyl)-2-(2-aminopyridin-3-yl)-3H-imidazo[4,5-b]pyridin-5-yl)-N-(2-hydroxypropyl)benzamide]			0.008 µM	1350 µM
Nc1ncccc1-c1nc2ccc(Nc3ccccc3)nc2n1-c1ccc(C2(N)CCC2)cc1 [Cmpd 19, 3-(4-(1-aminocyclobutyl)phenyl)-2-(2-aminopyridin-3-yl)-N-phenyl-3H-imidazo[4,5-b]pyridin-5-amine]		0.00377 µM	0.06 µM	1420 µM
C[C@H](O)CNC(=O)c1cccc(-c2ccc3nc(-c4cccnc4N)n(-c4ccc(C5(N)CCC5)cc4)c3n2)c1 [Cmpd 7, (S)-3-(3-(4-(1-aminocyclobutyl)phenyl)-2-(2-aminopyridin-3-yl)-3H-imidazo[4,5-b]pyridin-5-yl)-N-(2-hydroxypropyl)benzamide]			0.012 µM	836 µM
CC(C)(C)C(=O)N1CCN(c2cccc(-c3ccc4nc(-c5cccnc5N)n(-c5ccc(C6(N)CCC6)cc5)c4n3)c2)CC1 [Cmpd 16, 1-(4-(3-(3-(4-(1-aminocyclobutyl)phenyl)-2-(2-aminopyridin-3-yl)-3H-imidazo[4,5-b]pyridin-5-yl)phenyl)piperazin-1-yl)-2,2-dimethylpropan-1-one]	0.0017 µM	0.00342 µM		
CC(=O)OC(C)(C)C(=O)Nc1cccc(-c2ccc3nc(-c4cccnc4N)n(-c4ccc(C5(N)CCC5)cc4)c3n2)c1 [Cmpd 5, 1-((3-(3-(4-(1-aminocyclobutyl)phenyl)-2-(2-aminopyridin-3-yl)-3H-imidazo[4,5-b]pyridin-5-yl)phenyl)amino)-2-methyl-1-oxopropan-2-yl acetate]	0.0007 µM	0.00446 µM		
Nc1ncccc1-c1nc2ccc(N3CCOCC3)nc2n1-c1ccc(C2(N)CCC2)cc1 [Cmpd 1, 3-(3-(4-(1-aminocyclobutyl)phenyl)-5-morpholino-3H-imidazo[4,5-b]pyridin-2-yl)pyridin-2-amine]			0.235 µM	
